Our source for the inhibition, Activity and IC50 values is ChEMBL document CHEMBL3751797, “Discovery of TRAF-2 and NCK-interacting kinase (TNIK) inhibitors by ligand-based virtual screening methods” (Medchemcomm, 2015).

The target in data set [1] is Tyrosine-protein kinase BTK (Homo sapiens) (UniProt Q06187). Nature of the data set: Inhibition of human BTK using srctide as substrate at 10 uM after 1 hr in presence of 30 uM ATP.
Data set [2] addresses ALK tyrosine kinase receptor (Homo sapiens) (UniProt Q9UM73). Nature of the data set: Inhibition of human ALK using IGF-1Rtide as substrate at 10 uM after 2 hrs in presence of 30 uM ATP.
The target of data set [3] is Glycogen synthase kinase-3 (Homo sapiens) (UniProt P49840+P49841). Put plainly: Inhibition of human GSK3 using GSM as substrate at 10 uM after 1.5 hrs in presence of 30 uM ATP. Format: protein assay.
In data set [4] the target is Fibroblast growth factor receptor 1 (Homo sapiens) (UniProt P11362). Put plainly: Inhibition of human FGFR1 using IGF-1Rtide as substrate at 10 uM after 1 hr in presence of 30 uM ATP.
Chain of Fibroblast growth factor receptor 1 (Homo sapiens) (P11362 22-822 limits assumed): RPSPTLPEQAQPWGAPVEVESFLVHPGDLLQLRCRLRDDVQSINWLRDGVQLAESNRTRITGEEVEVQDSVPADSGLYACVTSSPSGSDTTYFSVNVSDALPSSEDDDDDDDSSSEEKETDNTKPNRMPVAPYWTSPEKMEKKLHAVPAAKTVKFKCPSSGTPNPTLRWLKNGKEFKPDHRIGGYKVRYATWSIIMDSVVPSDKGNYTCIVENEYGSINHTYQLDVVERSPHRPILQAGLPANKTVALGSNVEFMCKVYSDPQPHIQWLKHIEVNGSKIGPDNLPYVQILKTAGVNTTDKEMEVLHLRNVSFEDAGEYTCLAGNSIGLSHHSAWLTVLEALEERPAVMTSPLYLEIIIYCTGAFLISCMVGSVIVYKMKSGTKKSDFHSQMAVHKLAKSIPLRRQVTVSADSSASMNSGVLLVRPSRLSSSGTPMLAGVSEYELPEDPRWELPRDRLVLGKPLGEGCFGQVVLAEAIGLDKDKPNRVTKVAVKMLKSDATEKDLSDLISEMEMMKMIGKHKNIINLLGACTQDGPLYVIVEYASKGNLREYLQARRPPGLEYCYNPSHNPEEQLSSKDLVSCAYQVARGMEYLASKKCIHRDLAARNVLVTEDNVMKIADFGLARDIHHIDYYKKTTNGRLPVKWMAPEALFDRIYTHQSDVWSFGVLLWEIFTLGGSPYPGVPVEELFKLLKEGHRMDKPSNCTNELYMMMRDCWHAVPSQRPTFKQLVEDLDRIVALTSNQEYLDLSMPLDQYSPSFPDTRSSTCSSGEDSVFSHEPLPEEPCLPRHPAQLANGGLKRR
For data set [5], the target named is Platelet-derived growth factor receptor beta (Homo sapiens) (UniProt P09619). Nature of the data set: Inhibition of human PDGFRbeta using srctide as substrate at 10 uM after 1 hr in presence of 30 uM ATP.
Data set [6] concerns the target Insulin-like growth factor 1 receptor (Homo sapiens) (UniProt P08069). Put plainly: Inhibition of human IGF1R at 10 uM in presence of 30 uM ATP.
The target in data set [7] is Phosphatidylinositol 4,5-bisphosphate 3-kinase catalytic subunit alpha isoform (Homo sapiens) (UniProt P42336). Put plainly: Inhibition of human PI3Kalpha using PIP2 as substrate at 10 uM after 1 hr in presence of 30 uM ATP.
Data set [8] concerns the target T1, Aurora kinase A (Homo sapiens) (UniProt O14965).
T1 sequence (whole entry): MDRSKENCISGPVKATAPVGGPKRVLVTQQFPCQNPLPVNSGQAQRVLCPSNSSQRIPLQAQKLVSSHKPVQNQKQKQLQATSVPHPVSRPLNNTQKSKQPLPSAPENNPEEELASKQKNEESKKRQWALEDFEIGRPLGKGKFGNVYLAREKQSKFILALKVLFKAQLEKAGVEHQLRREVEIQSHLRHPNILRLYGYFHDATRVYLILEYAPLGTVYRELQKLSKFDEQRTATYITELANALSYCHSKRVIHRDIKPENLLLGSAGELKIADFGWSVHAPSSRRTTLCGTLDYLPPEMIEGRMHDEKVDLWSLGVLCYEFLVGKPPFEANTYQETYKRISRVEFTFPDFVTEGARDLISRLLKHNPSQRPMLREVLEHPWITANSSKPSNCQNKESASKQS
Nature of the data set: Inhibition of human AURA using kemptide as substrate at 10 uM after 1 hr in presence of 30 uM ATP.

For data set [9], the target named is Serine/threonine-protein kinase pim-1 (Homo sapiens) (UniProt P11309). Put plainly: Inhibition of human PIM1 using S6K as substrate at 10 uM after 1 hr in presence of 30 uM ATP.
Chain of Serine/threonine-protein kinase pim-1 (Homo sapiens) (P11309 whole entry, looked up): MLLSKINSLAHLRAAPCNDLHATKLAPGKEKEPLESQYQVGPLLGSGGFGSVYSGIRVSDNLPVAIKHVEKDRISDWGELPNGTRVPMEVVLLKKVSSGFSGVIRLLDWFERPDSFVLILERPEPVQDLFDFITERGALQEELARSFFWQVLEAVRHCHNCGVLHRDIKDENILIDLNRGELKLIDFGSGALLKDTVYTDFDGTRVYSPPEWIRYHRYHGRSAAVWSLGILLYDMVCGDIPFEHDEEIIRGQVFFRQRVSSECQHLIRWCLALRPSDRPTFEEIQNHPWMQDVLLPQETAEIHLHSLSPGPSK
In data set [10] the target is T2, TRAF2 and NCK-interacting protein kinase (Homo sapiens, UniProt Q9UKE5). Nature of the data set: Inhibition of recombinant TNIK (unknown origin) using LRRKtide as substrate at 10 uM after 1 hr in presence of 30 uM ATP.
Target sequence in this assay (Q9UKE5 whole entry, looked up): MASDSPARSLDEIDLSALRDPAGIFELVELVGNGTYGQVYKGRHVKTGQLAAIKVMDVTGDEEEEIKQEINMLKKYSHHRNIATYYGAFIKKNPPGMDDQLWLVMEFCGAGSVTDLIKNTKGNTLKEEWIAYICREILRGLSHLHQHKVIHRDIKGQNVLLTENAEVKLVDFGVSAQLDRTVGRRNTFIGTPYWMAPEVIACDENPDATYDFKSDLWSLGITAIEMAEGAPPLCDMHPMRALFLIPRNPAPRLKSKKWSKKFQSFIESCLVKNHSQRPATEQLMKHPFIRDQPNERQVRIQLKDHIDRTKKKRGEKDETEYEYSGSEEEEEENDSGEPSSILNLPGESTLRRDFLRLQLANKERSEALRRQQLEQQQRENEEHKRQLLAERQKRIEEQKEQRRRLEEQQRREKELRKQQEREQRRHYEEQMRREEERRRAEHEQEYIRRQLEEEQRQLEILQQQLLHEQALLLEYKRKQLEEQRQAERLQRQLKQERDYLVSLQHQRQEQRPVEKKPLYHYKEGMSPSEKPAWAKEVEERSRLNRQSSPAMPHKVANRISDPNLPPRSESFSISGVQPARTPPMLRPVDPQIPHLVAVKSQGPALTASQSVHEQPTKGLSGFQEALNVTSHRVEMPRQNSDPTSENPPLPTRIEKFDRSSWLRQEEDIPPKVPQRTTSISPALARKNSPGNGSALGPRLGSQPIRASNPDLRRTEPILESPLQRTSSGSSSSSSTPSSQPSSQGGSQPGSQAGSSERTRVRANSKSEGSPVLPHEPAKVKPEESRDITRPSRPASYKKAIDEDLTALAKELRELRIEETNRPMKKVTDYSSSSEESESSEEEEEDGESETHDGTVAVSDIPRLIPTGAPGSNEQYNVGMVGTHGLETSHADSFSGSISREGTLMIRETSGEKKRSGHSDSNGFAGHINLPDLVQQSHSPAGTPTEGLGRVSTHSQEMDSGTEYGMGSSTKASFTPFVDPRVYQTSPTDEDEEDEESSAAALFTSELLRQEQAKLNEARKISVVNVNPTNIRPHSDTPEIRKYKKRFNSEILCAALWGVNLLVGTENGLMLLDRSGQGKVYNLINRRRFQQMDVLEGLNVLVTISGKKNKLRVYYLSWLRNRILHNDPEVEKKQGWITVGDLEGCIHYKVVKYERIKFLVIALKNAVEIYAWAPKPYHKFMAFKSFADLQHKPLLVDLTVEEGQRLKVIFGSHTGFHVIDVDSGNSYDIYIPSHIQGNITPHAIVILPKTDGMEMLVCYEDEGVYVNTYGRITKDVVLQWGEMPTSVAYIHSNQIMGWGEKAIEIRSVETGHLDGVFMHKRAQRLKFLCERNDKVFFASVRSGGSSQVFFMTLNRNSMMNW
Another data set concerns NCI-H1703. Put plainly: Cytotoxicity against human NCI-H1703 cells transfected with lentiviral vector 7TFP assessed as cell viability at 10 uM after 72 hrs by ATPlite assay. Format: cell-based. As to conditions: nci-h1703, 72 h. (In general: ATP-based viability assays read luminescence as a measure of living cells.)
The target of data set [11] is T2, TRAF2 and NCK-interacting protein kinase. Nature of the data set: Competitive inhibition of recombinant TNIK (unknown origin) using LRRKtide as substrate after 1 hr in presence of 300 uM ATP.
Target sequence in this assay (Q9UKE5 whole entry): as the sequence (Q9UKE5 whole entry, looked up) above
Data set [12] has the same target. Nature of the data set: Inhibition of recombinant TNIK (unknown origin) using LRRKtide as substrate after 1 hr in presence of 30 uM ATP.
Target sequence in this assay (Q9UKE5 whole entry): as the sequence (Q9UKE5 whole entry, looked up) above
Data set [13] has as its target Vascular endothelial growth factor receptor 2 (Homo sapiens) (UniProt P35968). Nature of the data set: Inhibition of human KDR using srctide as substrate at 10 uM after 1 hr in presence of 30 uM ATP.
The target in data set [14] is Tyrosine-protein kinase JAK2 (Homo sapiens) (UniProt O60674). Nature of the data set: Inhibition of human JAK2 using IGF-1Rtide as substrate at 10 uM after 1 hr in presence of 30 uM ATP.
Data set [15] concerns the target Receptor-type tyrosine-protein kinase FLT3 (Homo sapiens) (UniProt P36888). Put plainly: Inhibition of human FLT3 using srctide as substrate at 10 uM after 1 hr in presence of 30 uM ATP.
Data set [16] has as its target Fibroblast growth factor receptor 2 (Homo sapiens) (UniProt P21802). Nature of the data set: Inhibition of human FGFR2 using IGF-1Rtide as substrate at 10 uM after 1 hr in presence of 30 uM ATP.
In data set [17] the target is T2, TRAF2 and NCK-interacting protein kinase. Put plainly: Competitive inhibition of recombinant TNIK (unknown origin) using LRRKtide as substrate after 1 hr in presence of 3 uM ATP.
Target sequence in this assay (Q9UKE5 whole entry): as the sequence (Q9UKE5 whole entry, looked up) above
In data set [18] the target is Epidermal growth factor receptor (Homo sapiens) (UniProt P00533). Put plainly: Inhibition of human EGFR using srctide as substrate at 10 uM after 1 hr in presence of 30 uM ATP.
Data set [19] addresses T2, TRAF2 and NCK-interacting protein kinase. Put plainly: Competitive inhibition of recombinant TNIK (unknown origin) using LRRKtide as substrate after 1 hr in presence of 30 uM ATP.
Target sequence in this assay (Q9UKE5 whole entry): as the sequence (Q9UKE5 whole entry, looked up) above
In data set [20] the target is Tyrosine-protein kinase SYK (Homo sapiens) (UniProt P43405). Put plainly: Inhibition of human SYK using srctide as substrate at 10 uM after 1 hr in presence of 30 uM ATP.

In general, inhibition refers to the drop in the measured response relative to a control, in per cent. What is called IC50 is the concentration that gives 50% inhibition.

Chain of Insulin-like growth factor 1 receptor (Homo sapiens) (P08069 31-736 limits assumed): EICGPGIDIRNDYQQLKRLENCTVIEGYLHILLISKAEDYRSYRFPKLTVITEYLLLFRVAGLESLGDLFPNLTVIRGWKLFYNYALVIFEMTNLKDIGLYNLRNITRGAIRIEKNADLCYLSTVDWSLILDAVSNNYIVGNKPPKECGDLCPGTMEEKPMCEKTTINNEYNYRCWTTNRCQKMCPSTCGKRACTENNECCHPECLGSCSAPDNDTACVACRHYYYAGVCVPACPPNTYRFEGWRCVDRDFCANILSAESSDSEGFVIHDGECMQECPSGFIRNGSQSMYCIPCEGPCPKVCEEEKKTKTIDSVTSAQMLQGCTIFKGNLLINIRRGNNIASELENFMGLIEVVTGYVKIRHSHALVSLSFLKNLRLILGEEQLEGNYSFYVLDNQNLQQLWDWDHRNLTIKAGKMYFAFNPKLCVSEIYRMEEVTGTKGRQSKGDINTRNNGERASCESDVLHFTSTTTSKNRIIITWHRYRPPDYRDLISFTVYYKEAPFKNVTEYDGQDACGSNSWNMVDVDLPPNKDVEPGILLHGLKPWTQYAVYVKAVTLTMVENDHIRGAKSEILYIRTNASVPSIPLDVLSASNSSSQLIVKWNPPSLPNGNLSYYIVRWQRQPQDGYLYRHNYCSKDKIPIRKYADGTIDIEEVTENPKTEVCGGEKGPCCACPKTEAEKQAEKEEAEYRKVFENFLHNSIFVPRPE
Chain of Insulin-like growth factor 1 receptor (Homo sapiens) (P08069 741-1367 limits assumed): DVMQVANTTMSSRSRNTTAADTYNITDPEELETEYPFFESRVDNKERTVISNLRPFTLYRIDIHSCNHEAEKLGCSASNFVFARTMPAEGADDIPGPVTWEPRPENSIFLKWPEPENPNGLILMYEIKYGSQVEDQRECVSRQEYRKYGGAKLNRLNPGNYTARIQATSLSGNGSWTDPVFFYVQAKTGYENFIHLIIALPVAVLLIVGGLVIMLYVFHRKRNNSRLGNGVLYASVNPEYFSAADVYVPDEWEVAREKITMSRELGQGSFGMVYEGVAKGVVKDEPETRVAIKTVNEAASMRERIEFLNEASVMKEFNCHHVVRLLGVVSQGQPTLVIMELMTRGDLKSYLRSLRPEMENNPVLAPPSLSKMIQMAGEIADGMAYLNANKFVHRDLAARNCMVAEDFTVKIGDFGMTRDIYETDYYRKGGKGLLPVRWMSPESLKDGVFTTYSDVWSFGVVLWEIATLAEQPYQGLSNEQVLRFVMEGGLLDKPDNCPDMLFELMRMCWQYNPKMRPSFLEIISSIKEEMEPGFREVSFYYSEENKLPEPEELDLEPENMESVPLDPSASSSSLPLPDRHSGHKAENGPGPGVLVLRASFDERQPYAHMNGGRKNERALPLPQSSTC
Chain of Fibroblast growth factor receptor 2 (Homo sapiens) (P21802 22-821 limits assumed): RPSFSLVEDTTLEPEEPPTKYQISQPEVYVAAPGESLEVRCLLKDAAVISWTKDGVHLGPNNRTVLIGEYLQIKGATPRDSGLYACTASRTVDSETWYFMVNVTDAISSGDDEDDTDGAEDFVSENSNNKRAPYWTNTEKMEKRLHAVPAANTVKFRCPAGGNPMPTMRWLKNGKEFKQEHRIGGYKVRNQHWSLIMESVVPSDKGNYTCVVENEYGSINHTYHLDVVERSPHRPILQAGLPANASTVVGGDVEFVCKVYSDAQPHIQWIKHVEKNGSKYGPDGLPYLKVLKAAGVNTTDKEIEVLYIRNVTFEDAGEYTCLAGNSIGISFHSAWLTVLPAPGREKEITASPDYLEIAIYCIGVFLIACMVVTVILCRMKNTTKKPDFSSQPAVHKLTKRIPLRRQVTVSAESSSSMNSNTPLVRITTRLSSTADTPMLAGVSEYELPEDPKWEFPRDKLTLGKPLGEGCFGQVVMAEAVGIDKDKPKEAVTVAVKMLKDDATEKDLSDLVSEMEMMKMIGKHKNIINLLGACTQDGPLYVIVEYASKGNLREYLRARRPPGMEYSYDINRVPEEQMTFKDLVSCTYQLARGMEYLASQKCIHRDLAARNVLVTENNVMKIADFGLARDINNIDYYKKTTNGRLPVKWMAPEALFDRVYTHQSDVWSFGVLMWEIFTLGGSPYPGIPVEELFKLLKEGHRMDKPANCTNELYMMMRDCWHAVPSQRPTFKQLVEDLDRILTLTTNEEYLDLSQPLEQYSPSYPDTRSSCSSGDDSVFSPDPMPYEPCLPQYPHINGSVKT

Take `CN1CCN(c2ccc(NC(=O)c3ccc(-c4cc(Cl)ccc4Cl)o3)cc2)CC1`: the inhibition in [1] was 4.3%; in data set [2] it was 17.4%; in data set [3] it was 20.7%; in [4] it was 21.6%; in data set [5] it was 75.7%; in [6], 3.4%. Also, the inhibition is 11.7% in data set [7]; 19.5% in data set [8]; 46.9% in data set [9]; 94% in data set [10]; 64.9% in data set [13]; 3.5% in data set [14]. The inhibition in data set [15] was determined as 93.8%; in data set [16] it was 54.8%; in data set [18] it was 9.3%; in data set [20], 34.9%. Also, in the data set with NCI-H1703, the Activity entry is “Non-toxic”. The IC50 in data set [11] came to 6180 nM; in [12], 850 nM; in data set [17], 394 nM; in [19], 849 nM.
As for `Cc1ccc(NC=C2C(=O)c3ccccc3C2=O)cc1C`, the inhibition in data set [10] is 43%.
For `CN(C)c1ccc(NC(=O)c2cc3ccccc3o2)cc1`, in [10], the inhibition is 39%.
Consider `CCC(=O)N1CCN(c2ccc(NC(=O)c3cc4ccccc4o3)cc2)CC1`, for which the inhibition in [10] worked out at 46%.
Still for that read-out and setting: the same measure for `CC(C)C(=O)Nc1cccc(NC(=O)c2ccc(-c3ccc(Cl)cc3)o2)c1`: 4.1%.
Still for that read-out and setting: the same measure for `Cc1ccccc1C(=O)N1CCN(c2ccc(NC(=O)c3ccc(-c4ccc(Cl)cc4)o3)cc2)CC1`: 12.9%; for `Cc1cc(C(=O)Nc2cccc(S(=O)(=O)N3CCOCC3)c2)sc1-c1ccccc1`: -4.9%.
Take `O=C(Nc1nnc(/C=C/c2ccccc2)s1)c1ccco1`: in data set [10], the inhibition turned out to be 70%. Moreover, in data set [12], the half-maximal inhibitory concentration (IC50) worked out at 3570 nM.
Regarding `O=C(Nc1cc(Cl)cc(Cl)c1)c1ccc(-c2ccc([N+](=O)[O-])cc2)o1`, the inhibition in data set [10] was determined as 8.9%.
Still for that read-out and setting: the same measure for `COc1ccc(C(=O)/C=C/Nc2ccc(C)c(C)c2)cc1`: 32%; for `CN1CCN(c2ccc(NC(=O)c3cccc(Cl)c3)cc2)CC1`: 45%.
As for `Cc1cc(C(=O)Nc2ccccc2C(N)=O)sc1-c1ccccc1`, in [10], the inhibition is 61.7%.
On the same count and under the same terms, the same measure for `CNS(=O)(=O)c1ccc(NC(=O)c2cc(C)c(-c3ccccc3)s2)cc1`: 72.8%.
For `Cc1c(Cl)cccc1-c1ccc(C(=O)Nc2ccc(S(N)(=O)=O)cc2)o1`, the inhibition was -2.3% in data set [1]; 18.4% in data set [2]; 17.3% in data set [3]; 5.2% in [4]; 13.8% in [5]; 7.7% in data set [6]. The inhibition turned out to be 17.4% in data set [8]; 24% in [9]; 76.4% in [10]; 0.1% in data set [13]; 23.7% in data set [14]; 27% in data set [15]. The inhibition was determined as 32.4% in [16], 51.7% in data set [18] and 15.3% in data set [20]. The Activity result in the data set with NCI-H1703 is “Non-toxic”. For the same molecule, the IC50 in [12] was found to be 260 nM.
Consider `Cc1ccc(-c2cc(C(=O)Nc3ccncc3)no2)cc1`, for which the inhibition in data set [10] is 40%.
Still for that read-out and setting: to `O=C(NNC(=O)c1cc2ccccc2cc1O)NC1CCCCC1` belongs 42%; to `O=C(Nc1cccc(NC(=O)c2ccc(Cl)cc2Cl)c1)c1ccc(-c2cccc([N+](=O)[O-])c2)o1`, 16.8%.
In the case of `O=C1[C@H](Cc2ccc(O)cc2)N2C(=O)CCN(C(=O)NCc3ccccc3)[C@H]2CN1Cc1cccc2ccccc12`, in the data set with NCI-H1703, the Activity entry is reported as “Non-toxic”.
As for `Cc1cc([N+](=O)[O-])ccc1NC(=O)c1ccc(-c2cccc(Cl)c2Cl)o1`, the inhibition in data set [10] came to 4.9%.
Consider `CC[C@@H]1CCc2c(sc(NC(=O)Nc3ccccc3)c2C(N)=O)C1`, for which the inhibition in data set [10] is 79%. Also, in data set [12], the IC50 came to 10300 nM.
Regarding `CN1CCN(c2ccc3nc(-c4c(N)c5c(F)cccc5[nH]c4=O)[nH]c3c2)CC1` [DOVITINIB], the Activity entry in the data set with NCI-H1703 was “Toxic”.
As for `CC(C)(C)c1ccc(/C=C/C(=O)Nc2ccccc2C(N)=O)cc1`, the inhibition in data set [10] was found to be 63%. Besides, in [12], the IC50 was 2740 nM.
As to `O=C(Nc1ccccc1Cl)c1ccc(-c2ccc(Cl)cc2)o1`, the inhibition in data set [10] worked out at 18.7%.
As for `Cc1cc([N+](=O)[O-])ccc1-c1ccc(C(=O)Nc2cccc(Cl)c2N2CCOCC2)o1`, in data set [10], the inhibition stood at 22.3%.
On the same count and under the same terms, to `Cc1cc(C(=O)Nc2ccc(C(=O)N3CCOCC3)cc2)sc1-c1ccccc1` belongs 60.4%.
In the case of `O=C(Nc1ccc(Br)cc1)Nc1ccc(CN2CCCC2)cc1`, in [10], the inhibition was 72%. Besides, in data set [12], the IC50 is 3510 nM.
As for `CC(=O)Nc1ccc(NC(=O)c2ccc(-c3ccc(Cl)c(Cl)c3)o2)cc1`, the inhibition in data set [10] turned out to be 23.1%.
